Source: patent US20150202196A1, “Methods of Using C-Met Modulators” (priority 2010, published 2015)

How the values were obtained:
[1] = system: human pancreatic adenocarcinomas; format: in vivo; details: for % of CD44+c-Met+ cancer stem cells in tumor: flow cytometry after 4 weeks treatment; for tumor growth during the 4 week period of treatment: subcutaneous tumor volume, weekly, FIG. 8B; for effect on cancer stem cell population (in words): CD44+c-Met+, flow cytometry; for tumor growth following cessation of treatment: versus untreated tumors
Procedure: Samples of human pancreatic adenocarcinomas were obtained. Within 60 minutes following surgical resection, tumors were suspended in sterile RPMI medium 1640 (available from Sigma-Aldrich®), mechanically dissociated using scissors, then minced with a sterile scalpel blade over ice to yield 2×2 mm pieces. The tumor pieces were washed with serum-free PBS before implantation. Eight-week-old male NOD/SCID mice were anesthetized using an i.p. injection of 100 mg/kg ketamine and 5 mg/kg xylazine. NOD/SCID mice are publically available from Charles River Laboratories International in Wilmington, Mass. A 5-mm incision was then made in the skin overlying the mid-abdomen, and three pieces of tumor were implanted subcutaneously. The skin incision was closed with absorbable suture. The mice were monitored weekly for tumor growth for 16 to 20 weeks. After establishment of xenografts, studies were performed on passage 2 tumors.
Xenograft tumors or primary human tumors were cut up into small pieces with scissors, and then minced completely using sterile scalpel blades. To obtain single cell suspensions, the resultant minced tumor pieces were mixed with ultra-pure collagenase IV (Worthington Biochemical, Lakewood, N.J.) in medium 199 (200 units of collagenase per ml) and allowed to incubate at 37° C. for 1 to 1.5 hours for enzymatic dissociation. The specimens were further mechanically dissociated every 10 minutes by pipetting with a 10-ml pipette. At the end of the incubation, cells were filtered through a 40-μm nylon mesh, washed with HBSS/20% FBS, and then washed twice with HBSS.
Sorted cells or bulk pancreatic tumor cells were washed with serum free HBSS and suspended in serum free-RPMI1640/Matrigel mixture (1:1 volume), followed by injection into the subcutaneous tissue of the right and left mid-abdominal area using a 27-gauge needle. In separate experiments, mice were anesthetized with an i.p. injection of 100 mg/kg ketamine and 5 mg/kg xylazine, and a small median laparotomy was performed. Five thousand sorted cells or 1-5×10^5 bulk tumor cells resuspended in PBS/Matrigel mixture (1:1) in a volume of 100 µl were injected into the tail of the pancreas using a 30-gauge needle. PBS stands for phosphate buffered saline, which can be obtained from Thermo Fisher Scientific Inc. Six mice were inoculated per test group. Animals then underwent autopsy, and tumor growth was accessed after 4 to 8 weeks. Tissues were fixed in formaldehyde and were examined histologically or dissociated to generate single cell suspensions for further study.
[…]. CD44 and c-Met are both markers on pancreatic cancer stem cells.
. Subcutaneous tumor volume was assessed weekly. […] Half of the mice in each group were euthanized 4 weeks after initiation of treatment, and the tumors were dissociated and examined using flow cytometry to determine the percentage of c-Met+/CD44+ cancer stem cells within the tumors. The remaining mice were kept for an additional 8 weeks following cessation of treatment, and tumor volume was measured weekly. […]. […]. […]
Tumor size was measured weekly. Three mice of each group were euthanized after 4 weeks treatment for analysis of cancer stem cells, and the other mice were followed to monitor tumor growth for an additional 8 weeks. […] In FIG. 8B, the average tumor size±SEM from three separate tumors is presented. FIG. 8C depicts a graph of CSC percentage in different treatment groups. The percentage of the c-Met+/CD44+ tumorigenic cancer cell population in the total cancer cell population is indicated for each treatment.

[2] = system: primary human pancreatic cancer; test: Orthotopic implants of primary human pancreatic cancer in the pancreatic tail of NOD/SCID mice: bioluminescent tumor growth and cancer stem cells; format: in vivo; details: for effect on cancer stem cell population (in words): CD44+CD24+ESA+; for effect on cancer stem cell population (in words) / % of CD44+CD24+ESA+ cancer stem cells in tumor: flow cytometry; for % of CD44+CD24+ESA+ cancer stem cells in tumor: table title says subcutaneous xenograft tumor, text cites it for orthotopic implants; for tumor growth during the 4 week treatment: orthotopic tumors, bioluminescent imaging, versus controls
Procedure: Sorted cells or bulk pancreatic tumor cells were washed with serum free HBSS and suspended in serum free-RPMI1640/Matrigel mixture (1:1 volume), followed by injection into the subcutaneous tissue of the right and left mid-abdominal area using a 27-gauge needle. In separate experiments, mice were anesthetized with an i.p. injection of 100 mg/kg ketamine and 5 mg/kg xylazine, and a small median laparotomy was performed. Five thousand sorted cells or 1-5×10^5 bulk tumor cells resuspended in PBS/Matrigel mixture (1:1) in a volume of 100 µl were injected into the tail of the pancreas using a 30-gauge needle. […] Animals then underwent autopsy, and tumor growth was accessed after 4 to 8 weeks.
To validate the findings with bioluminescent imaging, mice were euthanized with carbon dioxide inhalation, and autopsies were performed to assess the extent of primary tumor growth and metastasis.
The same three pancreatic cancers used for the subcutaneous tumor implantation experiments were infected with a lentivirus expressing luciferase to allow imaging in real time, and cells were injected into the pancreatic tail.
Tumor size and volume were measured weekly using Xenogen IVIS 200 imaging system throughout the experiment period.

[3] = Compound 1 30 mg/kg/day, GEM 100 mg/kg/twice weekly

| SMILES | % of CD44+c-Met+ cancer stem cells in tumor [1, 3] | tumor growth during the 4 week period of treatment [1] | increase of the c-Met+CD44+ population ([1]; subcutaneous tumors, 4 weeks treatment, GEM 100 mg/kg/twice weekly) | effect on cancer stem cell population (in words) ([1]; subcutaneous tumors) | tumor growth following cessation of treatment ([1]; subcutaneous tumors) | effect on cancer stem cell population (in words) [2] | % of CD44+CD24+ESA+ cancer stem cells in tumor [2] | tumor growth during the 4 week treatment [2] | decrease in CD44+c-Met+ cancer stem cell population ([1]; subcutaneous tumors, 4 weeks treatment, Compound 1 30 mg/kg/day, GEM 100 mg/kg/twice weekly) |
| --- | --- | --- | --- | --- | --- | --- | --- | --- | --- |
| Nc1ccn([C@@H]2O[C@H](CO)[C@@H](O)C2(F)F)c(=O)n1 [GEM, gemcitabine] | 4.34% | significantly inhibited tumor growth | 48±20% | increases in the total number of pancreatic cancer stem cells | grew more slowly than the untreated tumors | increases in the total number of pancreatic cancer stem cells | 4.3% | prevented tumor growth | – |
| COc1cc2nccc(Oc3ccc(NC(=O)C4(C(=O)Nc5ccc(F)cc5)CC4)cc3)c2cc1OC [Compound 1, N-(4-{[6,7-bis(methyloxy)quinolin-4-yl]oxy}phenyl)-N′-(4-fluorophenyl)cyclopropane-1,1-dicarboxamide] | 0.55% | significantly inhibited tumor growth | – | significantly depleted | grew more slowly than the untreated tumors | significantly depleted | 0.61% | prevented tumor growth | 83±3% |
